≈ marks a conversion by molar mass, not a printed value. Residues, ends and D or L forms follow the SMILES beside them.
Tests used:
[1] = test system: tested bacteria; settings: cited from earlier work
Source text: To overcome the drawbacks of using cationic peptides as a new generation of antibiotics, researchers began to synthesize new short peptides by reducing the residue of the peptide chain for use as candidate drugs in clinical trials. […] Therefore, we aimed to figure out the antibacterial activity of RR9 on initial oral colonizers, specifically S. oralis, S. gordonii, and S. sanguinis ... || Antibiotics are used excessively and inappropriately in clinic. As a result, it directly leads to the weakening of the effect of antibiotics and the emergence of drug-resistant pathogens. Among new biomedical alternatives, antimicrobial peptides (AMPs) and cell-penetrating peptides (CPPs) are considered promising candidates. CPPs are a new carrier that can pass through the cell membrane without cell surface receptor recognition and can deliver therapeutic drugs to the cell membrane. One of the most well-known examples of CPPs is penetratin (RQIKIWFQNRRMKWK ...

[2] = test system: mammalian cells; settings: cited from earlier work
Source text: Antibiotics are used excessively and inappropriately in clinic. As a result, it directly leads to the weakening of the effect of antibiotics and the emergence of drug-resistant pathogens. Among new biomedical alternatives, antimicrobial peptides (AMPs) and cell-penetrating peptides (CPPs) are considered promising candidates. CPPs are a new carrier that can pass through the cell membrane without cell surface receptor recognition and can deliver therapeutic drugs to the cell membrane. One of the most well-known examples of CPPs is penetratin (RQIKIWFQNRRMKWK ...

[3] = test system: planktonic oral streptococci (S. oralis, S. sanguinis, S. gordonii); assay: Time-kill assay; format: cell-based
Procedure: To evaluate the effect of RR9 on planktonic oral streptococci, the time-killing assay was used. First, 200 μL of RR9 solution and 800 μL of BHI broth were mixed with 1 mL of bacterial culture (5 × 10^7 CFU mL^−1), yielding 2 mL of the final volume with 100%, 200%, or 400% of the MBC final peptide concentrations. After 0, 0.25, 0.5, 1, 2, 4, 24, and 48 h of incubation at 37 °C, 10 μL of each suspension was pipetted, serially diluted 10 times, and finally transferred to a BHI agar plate for CFU determination. The time–kill kinetic curves were obtained by recording log(CFU mL^−1) as a function of incubation time […].

[4] = test system: sspA gene of S. gordonii; assay: RT-PCR of sspA gene expression; format: cell-based; settings: RR9 25 μg mL^−1 (MIC), 24 h, p < 0.05
Procedure: Trizol reagent was employed to extract the total RNA of S. gordonii cells, following the manufacturer’s instructions. The first strand of cDNA was synthesized by the retrotranscription of 2 μL of RNA (Invitrogen, TRIzol Max Bacterial RNA Isolation Kit). The cDNA was amplified to a final volume of 20 μL by 45 cycles in a DNA thermal circulatory apparatus. Pre-denaturation was carried out at 95 °C for 15 s, and the reaction was performed at 95 °C for 10 s, 60 °C for 20 s, and 72 °C for 30 s. The primer sequences of the differentiation markers are shown in Table A1 in Appendix B. After amplification, GAPDH was defined as the internal reference gene, and the sample of the control group was set as the standard to obtain the CT value of each target gene for each sample. The data were analyzed using the relative quantification of ΔCT. The relative quantitative (RQ) values of all target genes were obtained according to the formula RQ = 2^−ΔΔCT.

[5] = test system: streptococci biofilm (S. oralis, S. gordonii, S. sanguinis); assay: Biofilm susceptibility, crystal violet; format: cell-based; settings: RR9 25 μg mL^−1 (MIC), 24 h, n = 3, p < 0.05
Procedure: The antibacterial agents were evaluated by the microdilution method to study their impact on biofilm formation. In our study, streptococci (5 × 10^7 CFU mL^−1) mixed with RR9 were cultured for 24 h. The formed biofilm was fixed using methanol (95%) and stained using 0.5% (w/v) crystal violet, and the final OD at 600 nm was measured.

[6] = test system: streptococci biofilm (S. oralis, S. gordonii, S. sanguinis); format: cell-based; settings: RR9 25 μg mL^−1, 24 h at 37 °C, preformed 24 h biofilm, AO/EB
Procedure: Each bacteria suspension (300 μL) was mixed with BHI broth (900 μL) and then cultured for 24 h in a 24-well microtiter plate for biofilm formation. After the removal of the medium and unattached bacterial cells, RR9 (25 μg mL^−1) with saliva or serum was added, and the resulting samples were cultured for another 24 h at 37 °C. After the staining of the attached bacteria using an acridine orange/ethidium bromide (AO/EB) solution (Solarbio, Beijing, China), CLSM (Leica SP8, Oskar-Barnack-Strae Germany) was used to count the number of observed bacterial cells. For each biofilm strain, three representative areas per lens were scanned in at least three separate experiments. The images were captured using MetaMorph software (Universal Imaging, West Chester, PA, USA).

[7] = test system: streptococci biofilms and cell membranes; assay: SEM and TEM observation of bacterial morphology; format: cell-based, S. oralis, S. gordonii, S. sanguinis; settings: RR9 25 μg mL^−1, 24 h (SEM), 12 h (TEM)
Source text: The morphology of the formed biofilm was observed using scanning electron microscopy (SEM, SUPRA 55VP, Germany) following previously published procedures. Additionally, the transmission electron microscopy (TEM, JEM-2100F; JEOL Ltd., Tokyo, Japan)-based technique was employed for the structural analysis of RR9 cells according to the previously reported method. For more details, please check Appendix A.
A sterile coverslip was placed in a 24-well plate and was as described above. The coverslips with biofilms were fixed with 2.5% (v/v) glutaraldehyde, and the samples were dehydrated with increasing concentrations of ethanol for 15 min each. Prior to field-emission SEM, the samples were subjected to gold sputtering.
After incubation with RR9 (25 μg mL^−1) or without the peptide (control group) for 12 h at 37 °C in an anaerobic chamber (N2: 80%; H2: 10%; CO2: 10%), super-thin slice samples were prepared for TEM using a previously reported method. The cells were fixed with 2.5% glutaraldehyde at 4 °C for 4 h and, then, dyed with 2% uranyl acetate and 0.2% citrate before being observed under electron.

[8] = test system: S. sanguinis (ATCC No 10556); format: cell-based, Streptococci sanguinis; settings: ATCC No 10556, 24 h
Procedure: (§1) The bacterial strains S. oralis (ATCC No 9811), S. sanguinis (ATCC No 10556), and S. gordonii (ATCC No 10558) were purchased from the ATCC (American Type Culture Collection, Manassas, VA, USA). The cultivation method was the same as that described in a previous article.
(§2) The bacterial growth inhibiting ability of the peptide was determined using a broth microdilution-based method with modifications. […] The start inoculum was 5 × 10^7 CFU mL^−1, and the MIC was denoted as the lowest concentration of peptides where bacterial growth was stopped. After bacteria were treated with RR9 for 24 h, 20 uL was removed from each sample and spread on a brain heart infusion (BHI) agar plate. The CFU on plates were counted after incubation at 37 °C for 5 days. The MBC is the concentration of RR9 where over 99.9% of the cells were inhibited.

[9] = test system: S. oralis (ATCC No 9811); format: cell-based, Streptococci oralis; settings: ATCC No 9811, 24 h
Procedure: as §1, §2

[10] = test system: S. gordonii (ATCC No 10558); format: cell-based, Streptococci gordonii; settings: ATCC No 10558, 24 h
Procedure: as §1, §2

[11] = test system: human gingival fibroblasts (HGFs); format: cell-based; settings: RR9 25 μg mL^−1, 1–4 days, CCK-8 OD 450 and AO/EB CLSM
Procedure: HGFs were purchased from Procell Life Science & Technology (Wuhan, China). Cells from passages 4 to 6 were used. The cultivation method was described previously.
The HGFs (2 × 10^3 cells per well) were cultured in DMEM supplemented with 10% FBS in a humidified incubator (37 °C, 5% CO2 atmosphere) for 24 h. Pretreatment of the cells was conducted by incubating with 25 μg mL^−1 RR9 for 1, 2, 3, and 4 days. Untreated cells were used as a negative control. The samples were characterized using the Cell Counting Kit-8 (Dojindo Laboratories, Kumamoto, Japan) by measuring their absorbance at 450 nm using a microplate reader (BioTek Synergy HT, Vermont, USA). After staining using AO/EB live/dead dye, the viability of seeded cells on the sterile coverslips was determined using CLSM. Each sample consisted of five wells.

Row | Compound | bactericidal effect on the tested bacteria [1] | cytotoxicity toward mammalian cells [2] | time to complete bacterial death ([3]; 100%, 200% or 400% of the MBC, 37 °C, all tested strains) [h] | duration of the antimicrobial effect ([3]; time-kill over 48 h) [h] | expression of the sspA gene versus control [4] | biofilm formation, OD at 600 nm versus control [5] | anti-biofilm effect of RR9 with saliva or serum compared with RR9 alone (CLSM live/dead) [6] | bacterial morphology and membrane integrity (SEM, TEM) [7] | MBC [8] [µg/mL] | MIC [8] [µg/mL] | antimicrobial effect against selected bacteria [1] | MBC [9] [µg/mL] | MIC [9] [µg/mL] | MBC [10] [µg/mL] | MIC [10] [µg/mL] | cytotoxicity toward HGFs [11]
1 | RQIKIWFQNRRMKWKK-NH2 [penetratin, well-known cell-penetrating peptide, …-NH2] | strong bactericidal effect | without any cytotoxicity |  |  |  |  |  |  |  |  |  |  |  |  |  | 
2 | CC[C@H](C)[C@H](NC(=O)[C@H](CCC(N)=O)NC(=O)[C@@H](N)CCCNC(=N)N)C(=O)N[C@@H](CCCNC(=N)N)C(=O)N[C@@H](CCCNC(=N)N)C(=O)N[C@@H](Cc1c[nH]c2ccccc12)C(=O)N[C@@H](Cc1c[nH]c2ccccc12)C(=O)N[C@@H](CCC(N)=O)C(=O)N[C@@H](CCCNC(=N)N)C(N)=O [RR9, Arg-Gln-Ile-Arg-Arg-Trp-Trp-Gln-Arg-NH2] (H-RQIRRWWQR-NH2; N-terminus assumed) |  |  | 24 to 48 | 44 | significantly reduced | reduced OD value | No significant difference | the bacteria swelled, and some cell membranes were damaged | 62.5 (≈ 45.2 µM) | 25 (≈ 18.1 µM) | strong antimicrobial effect | 62.5 (≈ 45.2 µM) | 25 (≈ 18.1 µM) | 50 (≈ 36.1 µM) | 25 (≈ 18.1 µM) | negligible cytotoxicity

— article PMC8196835, “Antibacterial Properties of Small-Size Peptide Derived from Penetratin against Oral Streptococci” (Materials, 2021)
